{"source": "ChEMBL document CHEMBL5036373", "about": "“Enantiopure Benzofuran-2-carboxamides of 1-Aryltetrahydro-β-carbolines Are Potent Antimalarials In Vitro” (ACS Med Chem Lett, 2022)", "key": {"[1]": {"tested_on": "Plasmodium falciparum", "assay": "Antiplasmodial activity against chloroquine, pyrimethamine and mefloquine-resistant asexual blood stage of Plasmodium falciparum Dd2 assessed as reduction in parasite growth after 72 hrs by SYBR green I staining based fluorescence assay", "type": "functional, organism-based", "conditions": "Dd2, 72 h"}, "[2]": {"tested_on": "Plasmodium falciparum", "assay": "Antiplasmodial activity against chloroquine, pyrimethamine and mefloquine-sensitive asexual blood stage of Plasmodium falciparum 3D7 assessed as reduction in parasite growth after 72 hrs by SYBR green I staining based fluorescence assay", "type": "functional, organism-based", "conditions": "3D7, 72 h"}, "[3]": {"tested_on": "Plasmodium berghei", "assay": "In vivo antimalarial activity against blood stage transgenic Plasmodium berghei ANKA strain (PbGFP-Luccon) infected in swiss Webster mouse assessed as supression of parasitemia at 40 mg/kg, po administered once daily starting from day 2 to 6 post infection and measured at day 7 by luciferase substrate based imaging analysis", "type": "functional, organism-based", "conditions": "time 5.0 day"}, "[4]": {"assay": "Solubility of the compound in pH 7.4 PBS buffer by LC-MS analysis", "type": "physicochemical"}, "[5]": {"assay": "Stability in CD-1 mouse plasma measured after 60 mins LC-MS analysis", "type": "ADME, cell-free", "conditions": "read-out: Stability"}, "[6]": {"assay": "Stability in CD-1 mouse liver microsomes assessed as half life measured after 60 mins in presence of NADPH LC-MS analysis", "type": "ADME, Microsome"}, "[7]": {"tested_on": "Escherichia coli", "assay": "Antibacterial activity against Escherichia coli BL21 (DE3) cells assessed as inhibition of bacterial growth measured after 18 hrs measured by cell density meter", "type": "functional"}, "[8]": {"assay": "Half life in rat plasma at 40 mg/kg, po", "type": "ADME, organism-based"}, "[9]": {"assay": "Oral bioavailability in rat", "type": "ADME, organism-based", "conditions": "in vivo"}, "[10]": {"assay": "Cytotoxicity against human primary hepatocytes assessed as reduction in cell viability incubated for 24 hrs by DAPI staining based fluorescence assay", "set-up": "species or system Hepatocyte"}, "[11]": {"assay": "AUC(0 to 24) in rat at 40 mg/kg, po", "type": "ADME, organism-based", "set-up": "time < 24 hr, route oral, dose 40 mg/kg", "conditions": "in vivo"}, "[12]": {"assay": "Partition coefficient, logD between 1-octanol and pH 7.4 PBS by LC-MS analysis", "type": "physicochemical", "conditions": "1-octanol/PBS"}, "[13]": {"assay": "Stability in mouse hepatocyte assessed as half life measured after 120 mins by LC-MS analysis", "type": "ADME, tissue-based", "conditions": "hepatocytes"}, "[14]": {"assay": "Cytotoxicity against human HEK293 cells assessed as reduction in cell viability incubated for 24 hrs by resazurin dye based fluorescence assay"}, "[15]": {"assay": "Plasma protein binding in CD-1 mouse at 1 to 10 uM by LC-MS analysis", "type": "ADME, cell-free", "conditions": "dose 1-10 µM, read-out: PPB"}}, "note": "Calls of active or inactive are those of the source. The calls are words filed in the database; no cut-off is given here.", "data": [{"molecule": "O=C(c1cc2ccc(Br)cc2o1)N1CCc2c([nH]c3ccccc23)[C@H]1c1ccc(Cl)cc1", "values": [{"measurement": "EC50", "setting": "[1]", "value": 796, "unit": "nM"}]}, {"molecule": "O=C(CCC1CCCC1)N1CCc2c([nH]c3ccccc23)C1c1ccc(Cl)cc1", "note": "(racemic)", "values": [{"measurement": "EC50", "setting": "[1]", "value": 726, "unit": "nM"}]}, {"molecule": "O=C(c1cc2cc(Cl)ccc2[nH]1)N1CCc2c([nH]c3ccccc23)[C@H]1c1ccc(Cl)cc1", "values": [{"measurement": "EC50", "setting": "[1]", "value": 1250, "unit": "nM"}]}, {"molecule": "CCOc1ccc([C@@H]2c3[nH]c4ccccc4c3CCN2C(=O)c2cc3cc(Br)ccc3o2)cc1", "values": [{"measurement": "EC50", "setting": "[2]", "value": 120, "unit": "nM"}, {"measurement": "EC50", "setting": "[1]", "value": 138, "unit": "nM"}]}, {"molecule": "O=C(c1cc2ccccc2o1)N1CCc2c([nH]c3ccccc23)[C@H]1c1ccc(Cl)cc1", "values": [{"measurement": "EC50", "setting": "[1]", "value": 1250, "unit": "nM"}]}, {"molecule": "CCOc1ccc([C@@H]2c3[nH]c4ccccc4c3CCN2C(=O)c2cc3cc(F)ccc3o2)cc1", "values": [{"measurement": "EC50", "setting": "[1]", "value": 123, "unit": "nM"}]}, {"molecule": "CCOc1ccc([C@@H]2c3[nH]c4ccccc4c3CCN2C(=O)c2cc3ccccc3o2)cc1", "values": [{"measurement": "EC50", "setting": "[1]", "value": 1250, "unit": "nM"}]}, {"molecule": "CCN(CC)CCCC(C)Nc1ccnc2cc(Cl)ccc12", "note": "(stereo not drawn) [CHLOROQUINE]", "values": [{"measurement": "EC50", "setting": "[2]", "value": 7, "unit": "nM"}, {"measurement": "Activity", "setting": "[3]", "value": "Active"}, {"measurement": "EC50", "setting": "[1]", "value": 319, "unit": "nM"}]}, {"molecule": "O=C(c1ccc(Cl)c(Cl)c1)N1CCc2c([nH]c3ccccc23)C1c1ccc(Cl)cc1", "note": "(racemic)", "values": [{"measurement": "EC50", "setting": "[1]", "value": 1240, "unit": "nM"}]}, {"molecule": "O=C(c1cc2cc(Cl)ccc2o1)N1CCc2c([nH]c3ccccc23)[C@H]1c1ccc(F)cc1", "values": [{"measurement": "EC50", "setting": "[1]", "value": 143, "unit": "nM"}]}, {"molecule": "CCOc1ccc([C@@H]2c3[nH]c4ccccc4c3CCN2C(=O)c2nc3cc(Br)ccc3o2)cc1", "values": [{"measurement": "EC50", "setting": "[2]", "value": 937, "unit": "nM"}, {"measurement": "EC50", "setting": "[1]", "value": 770, "unit": "nM"}]}, {"molecule": "N#Cc1ccc([C@@H]2c3[nH]c4ccccc4c3CCN2C(=O)c2cc3cc(Br)ccc3o2)cc1", "values": [{"measurement": "EC50", "setting": "[1]", "value": 216, "unit": "nM"}]}, {"molecule": "COc1ccc(C(=O)N2CCc3c([nH]c4ccccc34)C2c2ccc(Cl)cc2)cc1", "note": "(racemic)", "values": [{"measurement": "EC50", "setting": "[1]", "value": 1250, "unit": "nM"}]}, {"molecule": "Cc1ccc2oc(C(=O)N3CCc4c([nH]c5ccccc45)[C@H]3c3ccc(Cl)cc3)cc2c1", "values": [{"measurement": "EC50", "setting": "[1]", "value": 198, "unit": "nM"}]}, {"molecule": "O=C(c1cc2cc(Br)ccc2o1)N1CCc2c([nH]c3ccccc23)[C@H]1c1ccc(Br)cc1", "values": [{"measurement": "EC50", "setting": "[1]", "value": 239, "unit": "nM"}]}, {"molecule": "O=C(c1cc2cc(Br)ccc2o1)N1CCc2c([nH]c3ccccc23)[C@H]1c1ccc(F)cc1", "values": [{"measurement": "EC50", "setting": "[1]", "value": 211, "unit": "nM"}]}, {"molecule": "CCOc1ccc([C@@H]2c3[nH]c4ccccc4c3CCN2C(=O)c2cc3cc(Cl)ccc3[nH]2)cc1", "values": [{"measurement": "EC50", "setting": "[1]", "value": 1250, "unit": "nM"}]}, {"molecule": "O=C(c1cc2cc(Br)ccc2o1)N1CCc2c([nH]c3ccccc23)[C@H]1c1ccccc1", "values": [{"measurement": "EC50", "setting": "[1]", "value": 452, "unit": "nM"}]}, {"molecule": "C[C@@H]1CC[C@H]2[C@@H](C)C(=O)O[C@@H]3O[C@@]4(C)CC[C@@H]1[C@]32OO4", "note": "[ARTEMISININ]", "values": [{"measurement": "EC50", "setting": "[2]", "value": 10, "unit": "nM"}, {"measurement": "EC50", "setting": "[1]", "value": 11, "unit": "nM"}]}, {"molecule": "O=C(c1cc2cc(Br)ccc2o1)N1CCc2c([nH]c3ccccc23)[C@H]1c1ccc(Cl)cc1", "values": [{"measurement": "solubility", "setting": "[4]", "value": "< 0.044", "unit": "µM"}, {"measurement": "remaining at 1 h", "setting": "[5]", "value": 100, "unit": "%"}, {"measurement": "half-life", "setting": "[6]", "value": 1.32, "unit": "h"}, {"measurement": "MIC", "setting": "[7]", "value": "> 25", "unit": "µM"}, {"measurement": "half-life", "setting": "[8]", "value": 8, "unit": "h"}, {"measurement": "EC50", "setting": "[2]", "value": 180, "unit": "nM"}, {"measurement": "bioavailability", "setting": "[9]", "value": 11, "unit": "%"}, {"measurement": "CC50 at 24 h", "setting": "[10]", "value": "> 10000", "unit": "nM"}, {"measurement": "AUC at 24 h", "setting": "[11]", "value": 28200, "unit": "ng·h/mL"}, {"measurement": "logD", "setting": "[12]", "value": "> 5"}, {"measurement": "half-life", "setting": "[13]", "value": 2.92, "unit": "h"}, {"measurement": "CC50 at 24 h", "setting": "[14]", "value": "> 50000", "unit": "nM"}, {"measurement": "Activity", "setting": "[3]", "value": "inactive"}, {"measurement": "EC50", "setting": "[1]", "value": 155, "unit": "nM"}, {"measurement": "fraction unbound at up to 10 µM", "setting": "[15]", "value": "< 0.001"}]}, {"molecule": "CCOc1ccc([C@@H]2c3[nH]c4ccccc4c3CCN2C(=O)c2nc3cc(Br)ccc3[nH]2)cc1", "values": [{"measurement": "EC50", "setting": "[1]", "value": 625, "unit": "nM"}]}, {"molecule": "CCOc1ccc([C@H]2c3[nH]c4ccccc4c3CCN2C(=O)c2cc3cc(Br)ccc3o2)cc1", "values": [{"measurement": "EC50", "setting": "[1]", "value": 625, "unit": "nM"}]}, {"molecule": "O=C(c1cc2cc(Br)ccc2o1)N1CCc2c([nH]c3ccccc23)C1c1ccc(Cl)cc1", "note": "(racemic)", "values": [{"measurement": "EC50", "setting": "[1]", "value": 185, "unit": "nM"}]}, {"molecule": "CC(=O)N1CCc2c([nH]c3ccccc23)C1c1ccc(Cl)cc1", "note": "(racemic)", "values": [{"measurement": "EC50", "setting": "[1]", "value": 2500, "unit": "nM"}]}, {"molecule": "O=C(c1cc2cc(Cl)ccc2o1)N1CCc2c([nH]c3ccccc23)[C@H]1c1ccc(Br)cc1", "values": [{"measurement": "EC50", "setting": "[1]", "value": 194, "unit": "nM"}]}, {"molecule": "CCOc1ccc([C@@H]2c3[nH]c4ccccc4c3CCN2C(=O)c2cc3cc(Cl)ccc3o2)cc1", "values": [{"measurement": "EC50", "setting": "[2]", "value": 175, "unit": "nM"}, {"measurement": "EC50", "setting": "[1]", "value": 129, "unit": "nM"}]}, {"molecule": "O=C(c1ccc(Br)cc1)N1CCc2c([nH]c3ccccc23)C1c1ccc(Cl)cc1", "note": "(racemic)", "values": [{"measurement": "EC50", "setting": "[1]", "value": 682, "unit": "nM"}]}, {"molecule": "Clc1ccc(C2NCCc3c2[nH]c2ccccc32)cc1", "note": "(racemic)", "values": [{"measurement": "EC50", "setting": "[1]", "value": 5000, "unit": "nM"}]}, {"molecule": "O=C(c1ccccc1)N1CCc2c([nH]c3ccccc23)C1c1ccc(Cl)cc1", "note": "(racemic)", "values": [{"measurement": "EC50", "setting": "[1]", "value": 2500, "unit": "nM"}]}, {"molecule": "O=C(c1cc2cc(Cl)ccc2o1)N1CCc2c([nH]c3ccccc23)[C@H]1c1ccc(Cl)cc1", "values": [{"measurement": "EC50", "setting": "[2]", "value": 304, "unit": "nM"}, {"measurement": "EC50", "setting": "[1]", "value": 173, "unit": "nM"}]}, {"molecule": "O=C(c1cc2cc(Br)ccc2o1)N1CCc2c([nH]c3ccccc23)[C@@H]1c1ccc(Cl)cc1", "values": [{"measurement": "EC50", "setting": "[2]", "value": 15, "unit": "nM"}, {"measurement": "EC50", "setting": "[1]", "value": 28, "unit": "nM"}]}]}
